Measurements reported in US11608332B2, “FGFR4 inhibitor and preparation method and use thereof” (Jiangsu Hansoh Pharmaceutical Group Co., Ltd., priority 2016, dated 2023).

How the values were obtained:
Hep 3B cells = test: Inhibition of Hep 3B cell proliferation (CellTiter-Glo); format: cell-based; details: Homo sapiens, Hep3B, 72 hours
Procedure: 3. Experiment on the Inhibition of Hep 3B Cell Proliferation
In this experiment, the inhibitory effect of the compounds on Hep 3B cell proliferation was tested by a CellTiter-Glo method, and the half maximal inhibitory concentration (IC50) of the compounds on the activity of cell proliferation was determined.
1) A 96-well cell culture plate was seeded with 50˜100 μL of Hep 3B cell suspension at a density of 1-5×10^4 cells/ml. The culture plate was incubated in an incubator for 16-24 hours (37° C., 5% CO2).
(§1) 2) Different concentrations of the test compound in a gradient dilution were added to the cells in the culture plate. The culture plate was incubated in an incubator for 72 hours (37° C., 5% CO2).
3) 50-100 μL of CellTiter-Glo reagent were added to each well. Then, the culture plate was shaken or left to stand for 5˜30 minutes at room temperature.
(§2) 4) The chemiluminescence signal values of each plate were determined by a microplate reader.
(§3) 5) The inhibition rates were calculated according to the chemiluminescence signal values.
6) The IC50 of the compound was obtained by curve fitting according to the inhibition rates at different concentrations, and the cell activity of the specific example compounds is shown in Table 2.

SK-HEP-1 cells = test: Inhibition of SK-HEP-1 cell proliferation (CellTiter-Glo); format: cell-based; details: Homo sapiens, SK-HEP1, 72 hours
Procedure: 5. Experiment on the Inhibition of SK-HEP-1 Cell Proliferation
In this experiment, the inhibitory effect of the compounds on SK-HEP-1 cell proliferation was tested by a CellTiter-Glo method, and the half maximal inhibitory concentration (IC50) of the compounds on the activity of cell proliferation was determined.
1) A 96-well cell culture plate was seeded with 50˜100 μL of SK-HEP-1 cell suspension at a density of 1-5×10^4 cells/ml. The culture plate was incubated in an incubator for 16˜24 hours (37° C., 5% CO2).
as §1
(§4) 3) 50˜100 μL of CellTiter-Glo reagent were added to each well. Then, the culture plate was shaken or left to stand for 5˜30 minutes at room temperature.
as §2, §3
The IC50 of the compound was obtained by curve fitting according to the inhibition rates at different concentrations, and the cell activity of the specific Example compounds is shown in Table 2.

[1] = Pharmacokinetic (PK) analysis in rats; format: in vivo, Sprague Dawley (SD) rats; details: SD rats, single intragastric administration, 5 mg/kg, plasma; for AUC(0-t) / AUC(0-inf) / half-life / MRT / Cmax: Sprague-Dawley, rat, po; for AUC(0-t): read-out: Area Under Curve AUC0-t; for AUC(0-inf): read-out: Area Under Curve AUC0-∞; for half-life: read-out: Half-Time t1/2 (converted); for MRT: read-out: Mean Residence Time MRT; for Cmax: read-out: Plasma Concentration Cmax
Procedure: 6. Pharmacokinetic (PK) Analysis in Rats
Mode of administration: a single intragastric administration.
Formulation: 0.5% CMC and 1% Tween 80, ultrasonic dissolution.
Sampling points: 0.5, 1, 2, 4, 6, 8 and 24 hours after administration.
1. 1.0 ml of intravenous blood was collected and placed in a K2EDTA test tube.
The blood was centrifuged at room temperature at the speed of 1000˜3000×g for 5˜20 minutes to isolate the plasma, which was then stored at −80° C. 2. 160 μL of acetonitrile were added to 40 μL of plasma sample for precipitation, and then the mixture was centrifuged at the speed of 500˜2000×g for 5˜20 minutes. 3. 100 μL of treated solution were taken, and the concentration of the test compound was analyzed by LC/MS/MS. The LC/MS/MS analytical instrument was AB Sciex API 4000.
Liquid Chromatography Analysis:
Condition of Liquid chromatography: Shimadzu LC-20AD pump
Chromatographic column: phenomenex Gemiu 5 um C18 50×4.6 mm
Mobile phase: Solution A is 0.1% aqueous formic acid solution, and solution B is acetonitrile
Elution time: 0-3.5 minutes, the eluent was as follows:
Mass spectrometry analysis:
Mass spectrometer setup conditions: positive ion electrospray ionization (ESI) mode.

FGFR1 kinase = FGFR1 kinase (Homo sapiens (Human), UniProt P11362); test: Enzymologic experiment of FGFR1 (TR-FRET); format: biochemical; details: TR-FRET kinase activity
Procedure: 2. Enzymologic Experiment of FGFR1
In this experiment, the inhibitory effect of the compounds on FGFR1 kinase activity was tested by a fluorescence resonance energy transfer (TR-FRET) method, and the half maximal inhibitory concentration (IC50) of the compounds on the FGFR1 kinase activity was determined.
1) 1˜5 μL of FGFR1 enzymatic solution was added to a 384-well plate, and the final concentration of the enzyme was 0.1˜5 nM.
2) 1˜5 μL of diluted solution in gradient of the compound was added.
3) 1˜5 μL of a substrate mixture containing substrate polypeptide with a final concentration of 5˜50 nM and ATP with a final concentration of 10˜200 μM was added.
4) The mixture was incubated for 0.5-3 hours at room temperature.
5) 10 μL of EDTA and a test solution comprising labeled antibody were added, and the plate was incubated for 1 hour at room temperature.
6) The fluorescence signal values of each plate were determined by a microplate reader at 665 nm.
7) The inhibition rates were calculated according to the fluorescence signal values.
The IC50 of the compound was obtained by curve fitting according to the inhibition rates at different concentrations, and the enzymatic activity of the specific example compounds is shown in Table 1.

HuH-7 cells = test: Inhibition of HuH-7 cell proliferation (CellTiter-Glo); format: cell-based; details: Homo sapiens, 72 hours
Procedure: 4. Experiment on the Inhibition of HuH-7 Cell Proliferation
In this experiment, the inhibitory effect of the compounds on HuH-7 cell proliferation was tested by a CellTiter-Glo method, and the half maximal inhibitory concentration (IC50) of the compounds on the activity of cell proliferation was determined.
1) A 96-well cell culture plate was seeded with 50˜100 μL of HuH-7 cell suspension at a density of 1-5×10^4 cells/ml. The culture plate was incubated in an incubator for 16˜24 hours (37° C., 5% CO2).
as §1, §4, §2, §3
6) The IC50 of the compound was obtained by curve fitting according to the inhibition rates at different concentrations, and the cell activity of the specific Example compounds is shown in Table 2.

FGFR1 kinase, sequence (P11362 22-822): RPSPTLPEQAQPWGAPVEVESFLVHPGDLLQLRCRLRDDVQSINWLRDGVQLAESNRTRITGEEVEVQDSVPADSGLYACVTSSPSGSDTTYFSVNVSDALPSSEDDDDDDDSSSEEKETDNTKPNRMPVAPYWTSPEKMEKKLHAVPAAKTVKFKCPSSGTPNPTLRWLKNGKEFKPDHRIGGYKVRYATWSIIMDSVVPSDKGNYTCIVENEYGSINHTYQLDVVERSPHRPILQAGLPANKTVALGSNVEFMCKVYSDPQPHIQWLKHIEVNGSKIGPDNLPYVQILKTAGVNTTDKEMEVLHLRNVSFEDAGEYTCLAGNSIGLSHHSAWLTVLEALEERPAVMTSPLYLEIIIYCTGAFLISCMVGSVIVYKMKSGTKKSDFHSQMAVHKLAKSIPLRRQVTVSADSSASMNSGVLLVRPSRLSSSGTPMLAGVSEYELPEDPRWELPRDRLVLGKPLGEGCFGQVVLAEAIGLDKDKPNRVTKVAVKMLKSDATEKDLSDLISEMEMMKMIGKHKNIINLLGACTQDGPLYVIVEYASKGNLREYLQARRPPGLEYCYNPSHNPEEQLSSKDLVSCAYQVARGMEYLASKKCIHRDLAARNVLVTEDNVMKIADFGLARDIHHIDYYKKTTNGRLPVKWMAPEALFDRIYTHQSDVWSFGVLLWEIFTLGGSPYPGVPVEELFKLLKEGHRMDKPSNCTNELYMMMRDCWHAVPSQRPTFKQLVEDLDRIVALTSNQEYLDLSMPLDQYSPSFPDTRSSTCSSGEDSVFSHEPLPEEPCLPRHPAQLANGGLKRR

Structure (SMILES)	IC50 (Hep 3B cells) [nM]	IC50 (SK-HEP-1 cells) [nM]	Peak Time tmax [1] [h]	AUC(0-t) [1] [ng·h/mL]	AUC(0-inf) [1] [ng·h/mL]	half-life [1] [h]	MRT [1] [h]	Cmax [1] [ng/mL]	IC50 (FGFR1 kinase) [nM]	IC50 (HuH-7 cells) [nM]
COCCNc1cc(NC(=O)N2CCCc3cc(CN(C)C(=O)C4CCOC4)c(C=O)nc32)ncc1C#N (stereo not shown) [Example 5, N-(5-Cyano-4-((2-methoxyethyl)amino)pyridin-2-yl)-7-formyl-6-((N-methyltetrahydrofuran-3-carboxamido)methyl)-3,4-dihydro-1,8-naphthyridin-1(2H)-carboxamide]	9.1	> 10000	2	13000	13400	1.2	3.2	3570	> 10000	31.7
CO[C@H]1CCN(Cc2cc3c(nc2C=O)N(C(=O)Nc2cc(N[C@@H]4CCOC4)c(C#N)cn2)CCC3)C1=O [Example 85, N-(5-Cyano-4-(((R)-tetrahydrofuran-3-yl)amino)pyridin-2-yl)-7-formyl-6-(((S)-3-methoxy-2-carbonylpyrrolidin-1-yl)methyl)-3,4-dihydro-1,8-naphthyridin-1(2H)-carboxamide]	2.6	> 10000	2	7280	7370	0.9	3.3	2120	> 10000	4.6
CO[C@H]1CCN(Cc2cc3c(nc2C=O)N(C(=O)Nc2cc(N[C@H]4CCOC4)c(C#N)cn2)CCC3)C1=O [Example 84, N-(5-Cyano-4-(((S)-tetrahydrofuran-3-yl)amino)pyridin-2-yl)-7-formyl-6-(((S)-3-methoxy-2-carbonylpyrrolidin-1-yl)methyl)-3,4-dihydro-1,8-naphthyridin-1(2H)-carboxamide]	2.4	> 10000	2	8860	8950	0.9	3.1	2620	> 10000	11
COCCNc1cc(NC(=O)N2CCCc3cc(CN(C)C(=O)C4CCOCC4)c(C=O)nc32)ncc1C#N [Example 98, N-(5-Cyano-4-((2-methoxyethyl)amino)pyridin-2-yl)-7-formyl-6-((N-methyltetrahydro-2H-pyran-4-carboxamido)methyl)-3,4-dihydro-1,8-naphthyridin-1(2H)-carboxamide]	2.7	> 10000	2	6700	6840	0.9	3.1	2690	> 10000	11.2
CO[C@@H]1CCN(Cc2cc3c(nc2C=O)N(C(=O)Nc2cc(N[C@@H]4CCOC4)c(C#N)cn2)CCC3)C1=O [Example 87, N-(5-Cyano-4-(((R)-tetrahydrofuran-3-yl)amino)pyridin-2-yl)-7-formyl-6-(((R)-3-methoxy-2-carbonylpyrrolidin-1-yl)methyl)-3,4-dihydro-1,8-naphthyridin-1(2H)-carboxamide]	2.2	> 10000	2	12400	14700	1.2	2.6	3360	> 10000	5.4
COCCNc1cc(NC(=O)N2CCCc3cc(CN(C)C(=O)[C@H]4CCCO4)c(C=O)nc32)ncc1C#N [Example 1, (R)—N-(5-Cyano-4-((2-methoxyethyl)amino)pyridin-2-yl)-7-formyl-6-((N-methyltetrahydrofuran-2-carboxamido)methyl)-3,4-dihydro-1,8-naphthyridin-1(2H)-carb oxamide]	7.3	> 10000	2	6800	6930	1.1	3.1	2070	> 10000	11
COCCNc1cc(NC(=O)N2CCCc3cc(CN(C)C(=O)[C@@H]4CCCO4)c(C=O)nc32)ncc1C#N [Example 2, (S)—N-(5-Cyano-4-((2-methoxyethyl)amino)pyridin-2-yl)-7-formyl-6-((N-methyltetrahydrofuran-2-carboxamido)methyl)-3,4-dihydro-1,8-naphthyridin-1(2H)-carb oxamide]	5.3	> 10000	2	5820	5900	1.2	2.5	2200	> 10000	5.9
COC[C@@H](C)Nc1cc(NC(=O)N2CCCc3cc(CN4CC[C@H](OC)C4=O)c(C=O)nc32)ncc1C#N [Example 89, N-(5-Cyano-4-(((R)-1-methoxypropan-2-yl)amino)pyridin-2-yl)-7-formyl-6-(((S)-3-methoxy-2-carbonylpyrrolidin-1-yl)methyl)-3,4-dihydro-1,8-naphthyridin-1(2H)-carboxamide]	1.9	> 10000	2	3100	3130	1	2.5	1990	> 10000	2.3
CN(Cc1cc2c(nc1C=O)N(C(=O)Nc1cc(N[C@@H]3CCOC3)c(C#N)cn1)CCC2)C(=O)[C@H]1CCCO1 [Example 95, N-(5-Cyano-4-(((R)-tetrahydrofuran-3-yl)amino)pyridin-2-yl)-7-formyl-6-(((R)—N-methyltetrahydrofuran-2-carboxamido)methyl)-3,4-dihydro-1,8-naphthyridin-1 (2H)-carboxamide]	2.8	> 10000	–	–	–	–	–	–	> 10000	12.9
COCCNc1cc(NC(=O)N2CCCc3cc(CN(C)C(=O)[C@@H]4CCOC4)c(C=O)nc32)ncc1C#N [Example 7, (R)—N-(5-Cyano-4-((2-methoxyethyl)amino)pyridin-2-yl)-7-formyl-6-((N-methyltetrahydrofuran-3-carboxamido)methyl)-3,4-dihydro-1,8-naphthyridin-1(2H)-carb oxamide]	4.7	> 10000	–	–	–	–	–	–	> 10000	10.6
